This is an account of results in patent US5231013A, “Polycyclic peptide antibiotic gallidermin” (priority 1988, dated 1993).

The MIC is the lowest concentration that inhibits growth of the organism. Read a low MIC as a more susceptible organism.

No end group written: not given here.

Common to all, as to assay type: cell-based
Test [1] relates to Propionibacterium acnes. Kind of test: Comparative MIC study with epidermin. The text has this:
In a comparative study with epidermin or Propionibacterium acnes the following MIC values were obtained: […]

Test [2] deals with Bac. fragilis (Bonn). Kind of test: MIC in liquid BF medium. How it is done:
(§1) Minimal inhibitory concentrations (MIC, Table 1) were determined in liquid BF medium of the following composition: sodium lactate 0.5%, sodium sulfate 0.5%, potassium dihydrogenphosphate 0.05%, dipotassium hydrogenphosphate 0.15%, magnesium chloride 0.02%, ammonium chloride 0.05%, glucose 1%; supplemented (per ml) with Ca-pantothenate 50 μg, folic acid 0.25 μg, niacin 50 μg, p-aminobenzoic acid 25 μg, pyridoxal hydrochloride 50 μg and riboflavin 25 μg.

Test [3] deals with Bac. fragilis (Koln). Kind of test: MIC in liquid BF medium. As for the experimental part: as §1
In test [4] the test system is Cb. xerosis ATCC 9755. Kind of test: MIC in liquid BF medium. As for the experimental part: as §1
For test [5], the system named is E. coli ATCC 11775. Kind of test: MIC in liquid BF medium. How it is done: as §1
Test [6] relates to Mc. luteus 15957. The test can be described thus: MIC in liquid BF medium. How it is done: as §1
Test [7] deals with Mc. luteus ATCC 9341. The test can be described thus: MIC in liquid BF medium. As for the experimental part: as §1
For test [8], the system named is Peptostreptococcus anaerobicus. Kind of test: MIC in liquid BF medium. As for the experimental part:
as §1

Test [9] concerns Ps. aeruginosa BC 19. Kind of test: MIC in liquid BF medium. As for the experimental part: as §1
The subject of test [10] is Sc. faecalis ATCC 29212. The test can be described thus: MIC in liquid BF medium. As for the experimental part:
as §1

For test [11], the system named is Sc. pyogenes ATCC 8668. The test can be described thus: MIC in liquid BF medium. As for the experimental part: as §1
The subject of test [12] is St. aureus E 88. Kind of test: MIC in liquid BF medium. How it is done:
as §1

In test [13] the test system is St. aureus SG 511. Kind of test: MIC in liquid BF medium. How it is done:
as §1

The test system of test [14] is St. epidermidis ATCC 12228. The test can be described thus: MIC in liquid BF medium. How it is done:
as §1

The test system of test [15] is St. pneumoniae ATCC 6302. Kind of test: MIC in liquid BF medium. How it is done: as §1

“Epidermin (IASKFICTPGCAKTGSFNSYCC; cysteine pairing not given here; also: lantibiotic: post-translational modifications not placed; UniProt P08136 31-52, looked up) [known polycyclic lanthionine peptide antibiotic obtained by cultivating a strain of Staphylococcus epidermis; differs from gallidermin by one amino acid, reference compound]” yielded an MIC in test [1] of 0.25 µg/mL.

“Gallidermin (IASKFLCTPGCAKTGSFNSYCC; cysteine pairing not given here; also: lantibiotic: post-translational modifications not placed; UniProt P21838 31-52, looked up) [polycyclic lanthionine peptide antibiotic produced by cultivation of Staphylococcus gallinarum (F16/P57) Tu 3928 (DSM 4616)]”: the minimum inhibitory concentration (MIC) in test [2] was found to be 128 µg/mL; in test [3] it was 128 µg/mL; in [4], 1 µg/mL; in test [5], 128 µg/mL; in test [6], 0.5 µg/mL; in test [7] it was 0.25 µg/mL. The MIC in [8] amounted to 0.5 µg/mL; in test [9], 128 µg/mL; in test [10] it was 64 µg/mL; in test [11], 1 µg/mL; in test [12], 8 µg/mL; in test [13] it was 4 µg/mL. In addition, the figures for the MIC in test [14], in test [15] and in [1] were 4 µg/mL, 4 µg/mL and 0.125 µg/mL, respectively.
